In patent US11884676B2, “Substituted pyrimido[1,2-b]pyridazines as positive allosteric modulators of the muscarinic acetylcholine receptor M4” (Vanderbilt University, priority 2020, dated 2024):

Target: T1, Human M4 (Homo sapiens, UniProt P08173)
T1 construct: expressed in transfected cells
T1 sequence (P08173 1-479): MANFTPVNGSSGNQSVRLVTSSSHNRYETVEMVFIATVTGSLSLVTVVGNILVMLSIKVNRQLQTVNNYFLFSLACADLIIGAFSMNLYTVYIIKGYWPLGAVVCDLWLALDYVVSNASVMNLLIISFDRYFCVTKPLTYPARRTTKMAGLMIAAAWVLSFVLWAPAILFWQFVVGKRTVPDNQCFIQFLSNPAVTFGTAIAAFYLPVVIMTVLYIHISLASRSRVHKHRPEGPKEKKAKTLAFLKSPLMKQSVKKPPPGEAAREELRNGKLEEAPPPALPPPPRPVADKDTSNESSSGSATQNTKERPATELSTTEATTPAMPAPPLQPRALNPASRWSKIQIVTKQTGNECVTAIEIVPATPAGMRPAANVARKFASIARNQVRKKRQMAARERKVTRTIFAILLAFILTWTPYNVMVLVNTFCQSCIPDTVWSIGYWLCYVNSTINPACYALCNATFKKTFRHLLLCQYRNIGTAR
Experiment: mAChR M4 cell-based functional assay (calcium flux, PAM mode)
Conditions: hM4-Gqi5 CHO-K1 cells; for Emax at 30 µM: CHO-K1, % ACh maximum at 30 μM; for EC50: concentration-dependent increase in the EC20 acetylcholine response
Procedure: Human and rat M4 cDNAs, along with the chimeric G protein Gqi5, were transfected into Chinese hamster ovary (CHO-K1) cells purchased from the American Type Culture Collection using Lipofectamine2000. hM4-Gqi5 cells were grown in Ham's F-12 medium containing 10% heat-inactivated fetal bovine serum (FBS), 20 mM HEPES, 50 μg/mL G418 sulfate, and 500 μg/mL Hygromycin B. rM4-Gqi5 cells were grown in DMEM containing 10% heat-inactivated FBS, 20 mM HEPES, 400 μg/mL G418 sulfate, and 500 μg/mL Hygromycin B.
For high throughput measurement of agonist-evoked increases in intracellular calcium, CHO-K1 cells stably expressing muscarinic receptors were plated in growth medium lacking G418 and hygromycin at 15,000 cells/20 μL/well in Greiner 384-well black-walled, tissue culture (TC)-treated, clear-bottom plates (VWR). Cells were incubated overnight at 37° C. and 5% CO2. The next day, cells were washed using an ELX 405 (BioTek) with assay buffer; the final volume was then aspirated to 20 μL. Next, 20 μL of a 2.3 μM stock of Fluo-4/acetoxymethyl ester (Invitrogen, Carlsbad, CA), prepared as a 2.3 mM stock in DMSO and mixed in a 1:1 ratio with 10% (w/v) Pluronic F-127 and diluted in assay buffer, was added to the wells and the cell plates were incubated for 50 min at 37° C. and 5% CO2. Dye was removed by washing with the ELX 405 and the final volume was aspirated to 20 μL. Compound master plates were formatted in an 11 point concentration-response curve (CRC) format (1:3 dilutions) in 100% DMSO with a starting concentration of 10 mM using a BRAVO liquid handler (Agilent). Test compound CRCs were then transferred to daughter plates (240 nL) using the Echo acoustic plate reformatter (Labcyte, Sunnyvale, CA) and then diluted into assay buffer (40 μL) to a 2× stock using a Thermo Fisher Combi (Thermo Fisher Scientific, Waltham, MA).
Calcium flux was measured using the Functional Drug Screening System (FDSS) 6000 or 7000 (Hamamatsu Corporation, Tokyo, Japan) as an increase in the fluorescent static ratio. Compounds were applied to cells (20 μL, 2×) using the automated system of the FDSS at 2-4 seconds into the protocol and the data were collected at 1 Hz. At 144 seconds, 10 μL of an EC20 concentration of the muscarinic receptor agonist acetylcholine was added (5×), followed by the addition of 12 μL of an EC80 concentration of acetylcholine at the 230 second time point (5×). Agonist activity was analyzed as a concentration-dependent increase in calcium mobilization upon compound addition. Positive allosteric modulator activity was analyzed as a concentration-dependent increase in the EC20 acetylcholine response. Antagonist activity was analyzed as a concentration-dependent decrease in the EC80 acetylcholine response. Concentration-response curves were generated using a four-parameter logistical equation in XLFit curve fitting software (IDBS, Bridgewater, NJ) for Excel (Microsoft, Redmond, WA) or Prism (GraphPad Software, Inc., San Diego, CA).
Compounds were synthesized as described above. Activity (EC50 and Emax) was determined in the mAChR M4 cell-based functional assay as described above and the data are shown in Table 2. The compound number corresponds to the compound numbers used in Examples 1 to 11 and Tables 1.

| SMILES | Emax at 30 µM [%] | EC50 [nM] |
| --- | --- | --- |
| Cc1cc2nc(C)c(F)c(=O)n2nc1N1CC[C@H](Oc2ccc3c(c2)OCCO3)[C@@H](F)C1 [Compound 37, 7-((3S,4S)-4-((2,3-dihydrobenzo[b][1,4]dioxin-6-yl)oxy)-3-fluoropiperidin-1-yl)-3-fluoro-2,8-dimethyl-4H-pyrimido[1,2-b]pyridazin-4-one] | 105 | 134 |
| [2H]C1([2H])Oc2ccc(O[C@H]3CCN(c4nn5c(=O)c(F)c(C)nc5cc4C)C[C@@H]3F)cc2OC1([2H])[2H] [Compound 38, 7-((3S,4S)-4-((2,3-dihydrobenzo[b][1,4]dioxin-6-yl-2,2,3,3-d4)oxy)-3-fluoropiperidin-1-yl)-3-fluoro-2,8-dimethyl-4H-pyrimido[1,2-b]pyridazin-4-one] | 107 | 211 |
| [2H]C1([2H])Oc2ccc(O[C@@H]3CCN(c4nn5c(=O)ccnc5cc4C)C[C@H]3F)cc2OC1([2H])[2H] [Compound 41, 7-((3R,4R)-4-((2,3-dihydrobenzo[b][1,4]dioxin-6-yl-2,2,3,3-d4)oxy)-3-fluoropiperidin-1-yl)-8-methyl-4H-pyrimido[1,2-b]pyridazin-4-one] | 114 | 159 |
| Cc1cc(=O)n2nc(N3CC[C@H](Oc4ccc5c(c4)OCCO5)[C@H](F)C3)c(C)cc2n1 [Compound 44, 7-((3R,4S)-4-((2,3-dihydrobenzo[b][1,4]dioxin-6-yl)oxy)-3-fluoropiperidin-1-yl)-2,8-dimethyl-4H-pyrimido[1,2-b]pyridazin-4-one] | 79 | 224 |
| [2H]C1(Oc2ccc3c(c2)OC([2H])([2H])C([2H])([2H])O3)CCN(c2nn3c(=O)c(C)c(C)nc3cc2C)CC1 [Compound 47, 7-(4-((2,3-dihydrobenzo[b][1,4]dioxin-6-yl-2,2,3,3-d4)oxy)piperidin-1-yl-4-d)-2,3,8-trimethyl-4H-pyrimido[1,2-b]pyridazin-4-one] | 81 | 51 |
| [2H]C1(Oc2ccc3c(c2)OCCO3)CCN(c2nn3c(=O)ccnc3cc2C)CC1 [Compound 48, 7-(4-((2,3-dihydrobenzo[b][1,4]dioxin-6-yl)oxy)piperidin-1-yl-4-d)-8-methyl-4H-pyrimido[1,2-b]pyridazin-4-one] | 91 | 46 |
| [2H]C1(Oc2ccc3c(c2)OCCO3)CCN(c2nn3c(=O)c(F)c(C)nc3cc2C)CC1 [Compound 50, 7-(4-((2,3-dihydrobenzo[b][1,4]dioxin-6-yl)oxy)piperidin-1-yl-4-d)-3-fluoro-2,8-dimethyl-4H-pyrimido[1,2-b]pyridazin-4-one] | 93 | 9 |
| [2H]C1([2H])Oc2ccc(O[C@@H]3CCN(c4nn5c(=O)cc(C)nc5cc4C)C[C@H]3F)cc2OC1([2H])[2H] [Compound 51, 7-((3R,4R)-4-((2,3-dihydrobenzo[b][1,4]dioxin-6-yl-2,2,3,3-d4)oxy)-3-fluoropiperidin-1-yl)-2,8-dimethyl-4H-pyrimido[1,2-b]pyridazin-4-one] | 94 | 16 |

The remaining molecules from weak to strong by EC50, led by results:

| Emax at 30 µM [%] | EC50 [nM] | SMILES |
| --- | --- | --- |
| 69 | 171 | Cc1cc2nccc(=O)n2nc1N1CC[C@H](Oc2ccc3c(c2)OCCO3)[C@H](F)C1 [Compound 43, 7-((3R,4S)-4-((2,3-dihydrobenzo[b][1,4]dioxin-6-yl)oxy)-3-fluoropiperidin-1-yl)-8-methyl-4H-pyrimido[1,2-b]pyridazin-4-one] |
| 84 | 168 | Cc1ccc(OC2CCN(c3nn4c(=O)cc(C)nc4cc3C)CC2)cn1 [Compound 52, 2,8-dimethyl-7-(4-((6-methylpyridin-3-yl)oxy)piperidin-1-yl)-4H-pyrimido[1,2-b]pyridazin-4-one] |
| 86 | 160 | Cc1cc2nccc(=O)n2nc1N1CC[C@@H](Oc2ccc3c(c2)OCO3)[C@H](F)C1 [Compound 53, 7-((3R,4R)-4-(benzo[d][1,3]dioxol-5-yloxy)-3-fluoropiperidin-1-yl)-8-methyl-4H-pyrimido[1,2-b]pyridazin-4-one] |
| 114 | 153 | [2H]C1([2H])Oc2ccc(OC3CCN(c4nn5c(=O)c(N6CCC6)cnc5cc4C)CC3)cc2OC1([2H])[2H] [Compound 35, 3-(azetidin-1-yl)-7-(4-((2,3-dihydrobenzo[b][1,4]dioxin-6-yl-2,2,3,3-d4)oxy)piperidin-1-yl)-8-methyl-4H-pyrimido[1,2-b]pyridazin-4-one] |
| 111 | 115 | [2H]C1(Oc2ccc3c(c2)OC([2H])([2H])C([2H])([2H])O3)CCN(c2nn3c(=O)ccnc3cc2C)CC1 [Compound 39, 7-(4-((2,3-dihydrobenzo[b][1,4]dioxin-6-yl-2,2,3,3-d4)oxy)piperidin-1-yl-4-d)-8-methyl-4H-pyrimido[1,2-b]pyridazin-4-one] |
| 118 | 60 | [2H]C1(Oc2ccc3c(c2)OC([2H])([2H])C([2H])([2H])O3)CCN(c2nn3c(=O)cc(C)nc3cc2C)CC1 [Compound 40, 7-(4-((2,3-dihydrobenzo[b][1,4]dioxin-6-yl-2,2,3,3-d4)oxy)piperidin-1-yl-4-d)-2,8-dimethyl-4H-pyrimido[1,2-b]pyridazin-4-one] |
| 105 | 52 | [2H]C1([2H])Oc2ccc(O[C@H]3CCN(c4nn5c(=O)ccnc5cc4C)C[C@@H]3F)cc2OC1([2H])[2H] [Compound 42, 7-((3S,4S)-4-((2,3-dihydrobenzo[b][1,4]dioxin-6-yl-2,2,3,3-d4)oxy)-3-fluoropiperidin-1-yl)-8-methyl-4H-pyrimido[1,2-b]pyridazin-4-one] |
| 116 | 40 | Cc1cc2nc(C)c(F)c(=O)n2nc1N1CC[C@@H](Oc2ccc3c(c2)OCCO3)[C@H](F)C1 [Compound 36, 7-((3R,4R)-4-((2,3-dihydrobenzo[b][1,4]dioxin-6-yl)oxy)-3-fluoropiperidin-1-yl)-3-fluoro-2,8-dimethyl-4H-pyrimido[1,2-b]pyridazin-4-one] |
| 77 | 26 | [2H]C1(Oc2ccc3c(c2)OC([2H])([2H])C([2H])([2H])O3)CCN(c2nn3c(=O)cc(C(F)(F)F)nc3cc2C)CC1 [Compound 45, 7-(4-((2,3-dihydrobenzo[b][1,4]dioxin-6-yl-2,2,3,3-d4)oxy)piperidin-1-yl-4-d)-8-methyl-2-(trifluoromethyl)-4H-pyrimido[1,2-b]pyridazin-4-one] |
| 81 | 22 | [2H]C1(Oc2ccc3c(c2)OC([2H])([2H])C([2H])([2H])O3)CCN(c2nn3c(=O)c(F)c(C)nc3cc2C)CC1 [Compound 46, 7-(4-((2,3-dihydrobenzo[b][1,4]dioxin-6-yl-2,2,3,3-d4)oxy)piperidin-1-yl-4-d)-3-fluoro-2,8-dimethyl-4H-pyrimido[1,2-b]pyridazin-4-one] |
| 93 | 10 | [2H]C1(Oc2ccc3c(c2)OCCO3)CCN(c2nn3c(=O)cc(C(F)(F)F)nc3cc2C)CC1 [Compound 49, 7-(4-((2,3-dihydrobenzo[b][1,4]dioxin-6-yl)oxy)piperidin-1-yl-4-d)-8-methyl-2-(trifluoromethyl)-4H-pyrimido[1,2-b]pyridazin-4-one] |
